“And” between values parts separate entries of the source, which are not always exact repeats. Identical values can stand only once.

The CC50 is the concentration at which the toxic effect on the cells reaches its halfway point. High values mean lower toxicity to the cells, low ones greater toxicity to the cells. In general, IC50 refers to the midpoint of a concentration-inhibition curve. The term MIC denotes the smallest concentration in the dilution series that meets the test's criterion for growth inhibition.

A short description of data set [1]: Sulforhodamine B (SRB) cytotoxicity assay. Conditions: human, Huh-7.5 cells. Format: cell-based. The protocol: Huh7.5 cells were grown in the DMEM/F12 (2:1) medium supplemented with 10% FBS (BioSera, Cholet, France), 2 mM L-glutamine, 100 U/mL penicillin, and 100 µg/mL streptomycin in the presence of 5% CO2 at 37 °C. Cells were re-seeded every three days at a ratio of 1:3 or 1:5. After an incubation period, cell monolayers were fixed with 10% (w/v) trichloroacetic acid and stained for 30 min by adding 100 µL of 0.057% (w/v) SRB solution to each well, after which the excess dye is removed by washing repeatedly with 1% (v/v) acetic acid. The protein-bound dye is dissolved in 10 mM Tris-base solution with pH 10.5 for OD determination using a Tecan Spark multimode microplate reader via absorbance at 510 nm.
(Sulforhodamine B stains cellular protein and so reports cell mass.)

Data set [2] deals with T1, recombinant HIV-1 Integrase (strand transfer) (Human immunodeficiency virus type 1 group M subtype B, UniProt P04585).
T1 construct: The recombinant HIV-1 Integrase (In) was isolated from the Rosetta Escherichia coli producer strain; made in house; host or cells: Escherichia coli Rosetta
Kind of data set: HIV integrase strand transfer inhibition. Format: biochemical. The following applies: for IC50: 100 nM integrase, 37 °C, 2 h. The method, then: The recombinant HIV-1 Integrase (In) was isolated from the Rosetta Escherichia coli producer strain and purified without the addition of a detergent as described previously. Radioactive ^32P label was introduced at the 5′-end of the oligonucleotide. Testing of the compounds was performed according to the previously published procedure. Briefly: 5 nM ^32P-labeled 21 mer DNA duplex (5′-[…]-3′ and 5′-[…]-3′) for 3′-processing reaction or 10 nM 19/21 mer DNA duplex (5′-[…]-3′ and 5′-[…]-3′) for strand transfer was incubated in 20 µL of the buffer (20 mM HEPES, pH 7.2, 7.5 mM MgCl2, 1 mM DTT) in the presence of 100 nM integrase and increasing concentrations of the inhibitor at 37 °C for 2 h. The reaction products were assayed by 20% polyacrylamide gel electrophoresis (PAGE) with 7 M urea. The result was visualized by radioautography on a Typhoon FLA 9500 PhosphorImager (GE Healthcare Technologies, Chicago, IL, USA). The counting of radioautograms was performed using QuantityOne 4.6.6 software (Bio-Rad, Hercules, CA, USA). Calculation of IC50 parameters was carried out by Prism 8.0.1 software (GraphPad Software, San-Diego, CA, USA).

Data set [3] deals with T2, Ku70–DNA complex (Homo sapiens, UniProt P12956).
T2 construct: made in house; host or cells: Escherichia coli
T2 sequence (P12956 whole entry): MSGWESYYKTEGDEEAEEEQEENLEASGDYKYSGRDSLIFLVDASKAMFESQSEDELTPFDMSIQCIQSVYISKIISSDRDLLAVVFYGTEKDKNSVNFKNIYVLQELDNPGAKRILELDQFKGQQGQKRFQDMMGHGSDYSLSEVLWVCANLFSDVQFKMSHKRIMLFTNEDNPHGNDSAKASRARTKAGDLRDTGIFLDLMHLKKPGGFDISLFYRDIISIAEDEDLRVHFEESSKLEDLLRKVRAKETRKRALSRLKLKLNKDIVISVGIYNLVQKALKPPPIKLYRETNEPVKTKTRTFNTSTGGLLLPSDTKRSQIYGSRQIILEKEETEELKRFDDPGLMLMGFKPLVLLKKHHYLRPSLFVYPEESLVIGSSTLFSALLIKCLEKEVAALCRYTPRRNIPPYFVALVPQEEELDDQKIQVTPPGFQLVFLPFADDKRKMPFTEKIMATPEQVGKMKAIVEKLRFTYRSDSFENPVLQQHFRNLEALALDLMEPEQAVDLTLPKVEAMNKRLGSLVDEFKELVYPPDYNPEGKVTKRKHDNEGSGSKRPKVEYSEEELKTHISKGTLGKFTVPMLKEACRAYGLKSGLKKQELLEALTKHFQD
T2 sequence (P13010 whole entry partner): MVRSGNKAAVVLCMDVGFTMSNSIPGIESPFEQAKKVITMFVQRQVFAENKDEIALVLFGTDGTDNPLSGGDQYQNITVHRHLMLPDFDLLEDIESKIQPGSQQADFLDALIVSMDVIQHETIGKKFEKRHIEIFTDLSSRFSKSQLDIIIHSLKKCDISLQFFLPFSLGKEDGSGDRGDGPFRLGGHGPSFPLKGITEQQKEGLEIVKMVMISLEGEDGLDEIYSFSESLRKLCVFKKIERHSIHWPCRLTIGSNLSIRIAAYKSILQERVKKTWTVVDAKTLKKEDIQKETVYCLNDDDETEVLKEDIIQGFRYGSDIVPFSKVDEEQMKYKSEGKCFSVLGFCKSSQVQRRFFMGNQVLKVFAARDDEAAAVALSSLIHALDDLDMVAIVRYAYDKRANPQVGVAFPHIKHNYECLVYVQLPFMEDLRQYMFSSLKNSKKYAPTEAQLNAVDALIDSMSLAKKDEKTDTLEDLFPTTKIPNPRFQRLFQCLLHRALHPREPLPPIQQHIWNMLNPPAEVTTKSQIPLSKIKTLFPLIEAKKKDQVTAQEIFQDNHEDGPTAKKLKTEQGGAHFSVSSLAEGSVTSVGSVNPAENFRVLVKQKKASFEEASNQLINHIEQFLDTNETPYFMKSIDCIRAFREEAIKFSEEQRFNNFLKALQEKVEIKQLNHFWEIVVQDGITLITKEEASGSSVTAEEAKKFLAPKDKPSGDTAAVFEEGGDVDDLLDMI
The data set can be described thus: EMSA of Ku70/Ku80–DNA complex formation. Conditions: 12.8 nM Ku heterodimer, 4 nM labelled 40 mer DNA duplex, read-out: IC50, inhibition of Ku70–DNA complex formation. Format: binding. The method, then:
A bicistronic construct was used for the simultaneous expression of the Ku70 and Ku80 proteins in E. coli. Proteins were chromatographically purified with a 6His-tag at the N terminus of the Ku80 subunit. Recombinant Ku protein was produced in bacterial cell culture, purified, and its DNA-binding activity was characterized.
Isolation was performed using affinity chromatography on Ni^2+-NTA resin. The presence of Ku and impurities was monitored using SDS-PAGE and Western blot analysis. The testing of substances as potential inhibitors of the interaction of the Ku heterodimer with DNA was carried out using the gel inhibition assay.
The testing of substances as potential inhibitors of the interaction of the Ku heterodimer with DNA was carried out using the EMSA. […] The result was visualized by radioautography on a Typhoon FLA 9500 PhosphorImager (GE Healthcare Technologies, Chicago, IL, USA). The counting of radioautograms was performed using QuantityOne 4.6.6 software (Bio-Rad, Hercules, CA, USA). The calculation of IC50 parameters was carried out by Prism 8.0.1 software (GraphPad Software, San-Diego, CA, USA).
On the technique in general: Mobility shift assays separate free from complexed probe on a gel.

The subject of data set [4] is C. albicans ATCC 10231. Kind of data set: MIC by twofold serial dilution, C. albicans. Format: cell-based. Conditions: Candida albicans, ATCC10231; 24 h, 35 °C; read-out: MIC (Mean ± SE) C. albicans ATCC 10231. The protocol:
Candida albicans ATCC 10231, Pseudomonas aeruginosa ATCC 27853, and Staphylococcus aureus ATCC 29213 strains were obtained from the American Type Culture Collection (ATCC; Rockville, MD, USA). The subculture and inoculum preparation were performed according to CLSI M27-A3 for C. albicans on yeast extract peptone dextrose (YPD) agar (HiMedia, Mumbai, Maharashtra, India) and RPMI-1640 medium (PanEco, Moscow, Russia) with MOPS (3-(N-morpholino) propanesulfonic acid, >99.5%; PanEco, Moscow, Russia), and M7-A11 for P. aeruginosa and S. aureus on Mueller-Hinton agar (MHA; HiMedia, Mumbai, Maharashtra, India) and Mueller-Hinton broth (MHB; HiMedia, Mumbai, Maharashtra, India). The stock cell concentrations of fungus and bacteria were 1 × 10^6 and 1 × 10^8 cells/mL, respectively. A working suspension of C. albicans (5.0 × 10^2 cells/mL) was prepared by two-step dilution of the broth concentration with the RPMI-1640 medium. Assay suspensions of P. aeruginosa and S. aureus (1.0 × 10^6 cells/mL) were prepared by diluting the concentration with Mueller-Hinton broth (HiMedia, Mumbai, Maharashtra, India). Amphotericin B (Sigma-Aldrich, Burlington, MA, USA) and gentamicin (Sigma-Aldrich, Burlington, MA, USA) were used as secondary pharmaceutical standards.
The minimum inhibitory concentration (MIC) was determined by the twofold serial dilution method, according to CLSI M27-A3 [33] and M07-A11 [34], in three independent experiments with four replicates each. Amphotericin B was used as a positive control for fungus; gentamicin was used as a positive control for bacteria. Stock solutions except gentamicin were prepared in DMSO at a concentration of 6400 μg/mL. Gentanicin was solubilized in sterile water at a concentration of 1280 μg/mL. Stock solutions of the tested substances were diluted to the final concentrations in the assay medium and 100 μL of each sample was added to the wells of 96-well plates, and then 100 μL of inoculum was added. Rows 11 and 12 were left for the negative control (medium with inoculum without the drug) and sterility control. The plates were incubated for 24 h at 35 °C in the case of C. albicans and at 37 °C in the case of P. aeruginosa and S. aureus. The tested concentration for gentamicin ranged from 0.0625 to 32 μg/mL; for other compounds, it ranged from 0.125 to 64 μg/mL. The MIC value was determined using spectrophotometer. The MIC was taken to be the lowest drug concentration that caused complete inhibition of microorganism growth compared to the control. The final MIC values were reported as the means with standard error (SE). Standard errors for µg/mL values less than 0.01 were excluded; standard errors for µM values less than 0.1 were excluded (Table 3).

In data set [1], `Oc1c(N/N=C/c2ccccc2)ccc2cccnc12` [Compound I, 7-(2-Benzylidenohydrazinyl)-8-hydroxyquinoline] displayed a 50% cytotoxic concentration (CC50) of 59.5 ± 12.5 µM. Further, in data set [2], the “inhibition of strand transfer, in words” value is recorded as “weak activity” and the IC50 was determined as 160 ± 50 µM. Also, the IC50 in data set [3] worked out at 40 ± 10 µM. In data set [4], the minimal inhibitory concentration (MIC) is 4 µg/mL and 15.2 µM.

In data set [1], `O=[N+]([O-])c1ccc(/C=N/Nc2ccc3cccnc3c2O)cc1` [II, 7-(4-Nitrobenzylidenohydrazinyl)-8-hydroxyquinoline] showed a half-maximal cytotoxic concentration (CC50) of 8 ± 0.1 µM. Further, in data set [2], the “inhibition of strand transfer, in words” value is “ineffective” and the half-maximal inhibitory concentration (IC50) was > 200 µM. For the same compound, the IC50 in data set [3] came out at 50 ± 20 µM. In addition, the MIC in data set [4] is 13 µM and 4 µg/mL.

In turn, `O=[N+]([O-])c1cccc(/C=N/Nc2ccc3cccnc3c2O)c1` [III, 7-(3-Nitrobenzylidenohydrazinyl)-8-hydroxyquinoline] displayed a CC50 in data set [1] of 7.1 ± 0.4 µM. In data set [2], the “inhibition of strand transfer, in words” value was “weak activity” and the IC50 was 190 ± 60 µM. In data set [3], the IC50 was 60 ± 20 µM. In data set [4], the minimum inhibitory concentration (MIC) was 11.3 µg/mL and 36.8 µM.

For `COc1ccc(/C=N/Nc2ccc3cccnc3c2O)cc1` [IV, 7-(4-Methoxybenzylidenohydrazinyl)-8-hydroxyquinoline], in data set [1], the midpoint of cytotoxicity, the CC50, lay at 40 ± 0.2 µM. Moreover, in data set [2], the “inhibition of strand transfer, in words” value was “weak activity”. In addition, the IC50 amounted to 150 ± 50 µM in data set [2] and 80 ± 30 µM in data set [3]. For the same compound, in data set [4], the MIC was 8 µg/mL and 27.3 µM.

In data set [1], `Oc1c(N/N=C/c2ccc(Br)c(Br)c2)ccc2cccnc12` [V, 7-(3,4-Dibromobenzylidenohydrazinyl)-8-hydroxyquinoline] registered a CC50 of 6.9 ± 0.3 µM. In data set [2], the “inhibition of strand transfer, in words” value is “ineffective” and the IC50 was > 200 µM. The IC50 in data set [3] is 25 ± 8 µM. Besides, the MIC in data set [4] was 15.3 µg/mL and 36.3 µM.

For `Oc1c(N/N=C/c2ccc(F)cc2)ccc2cccnc12` [VI, 7-(4-Fluorobenzylidenohydrazinyl)-8-hydroxyquinoline], the CC50 in data set [1] is 7 ± 0.2 µM. The IC50 in data set [2] is ~40 µM and 40 µM; in data set [3] it was > 250 µM. In addition, the MIC in data set [4] is 3.8 µg/mL and 13.6 µM.

(Values after PMC12428554, “Anti-HIV and Antimicrobial Activity of 7-Hydrazino-8-hydroxyquinoline-Based Aromatic Hydrazones” (International Journal of Molecular Sciences, 2025).)
